US12297194B2, “N2-phenylpyrimidine-2,4-diamine compounds, and preparation methods and methods of use thereof” (BRIDGE BIOTHERAPEUTICS, INC., priority 2021, dated 2025)

Columns and labels:
Assay type in all cases: cell-based, murine
[1] = target: Ba/F3 EGFR Del19/T790M/C797S mutants (Homo sapiens, UniProt P00533, T790M/C797S, cells depend on it, form not given); assay: CellTiter-Glo cell viability, Ba/F3 EGFR Del19/T790M/C797S cells; conditions: 72 hours, read-out: Ba/F3 EGFR mutant cell (IC50, nM) D/T/C
How it was run: (§1)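 Ba/F3 cells expressing wild-type or mutant EGFR were seeded at 2500 cells/well, treated after 24 hours with compound at 0–2000 nM (ten points), and incubated 72 hours at 37° C. Viability was read as cellular ATP by CellTiter-Glo luminescence, and IC50 values were fitted from the dose-response.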

Ba/F3 EGFR Wild-type = Ba/F3 EGFR Wild-type (Homo sapiens, UniProt P00533); assay: CellTiter-Glo cell viability, Ba/F3 EGFR wild-type cells; conditions: 72 hours, read-out: Ba/F3 EGFR mutant cell (IC50, nM) WT
How it was run: as §1

[2] = target: Ba/F3 EGFR Del19/T790M mutants (Homo sapiens, UniProt P00533, T790M, cells depend on it, form not given); assay: CellTiter-Glo cell viability, Ba/F3 EGFR Del19/T790M cells; conditions: 72 hours, read-out: Ba/F3 EGFR mutant cell (IC50, nM) D/T
How it was run: as §1

[3] = target: Ba/F3 EGFR L858R/T790M/C797S mutants (Homo sapiens, UniProt P00533, T790M/C797S/L858R, cells depend on it); assay: CellTiter-Glo cell viability, Ba/F3 EGFR L858R/T790M/C797S cells; conditions: 72 hours, read-out: Ba/F3 EGFR mutant cell (IC50, nM) L/T/C
How it was run: as §1

[4] = target: Ba/F3 EGFR L858R/C797S mutants (Homo sapiens, UniProt P00533, C797S/L858R, cells depend on it); assay: CellTiter-Glo cell viability, Ba/F3 EGFR L858R/C797S cells; conditions: 72 hours, read-out: Ba/F3 EGFR mutant cell (IC50, nM) L/C
How it was run: as §1

[5] = target: Ba/F3 EGFR Del19/C797S mutants (Homo sapiens, UniProt P00533, C797S, cells depend on it, form not given); assay: CellTiter-Glo cell viability, Ba/F3 EGFR Del19/C797S cells; conditions: 72 hours, read-out: Ba/F3 EGFR mutant cell (IC50, nM) D/C
How it was run: as §1

Chain of Ba/F3 EGFR L858R/C797S mutants (P00533 whole entry C797S/L858R): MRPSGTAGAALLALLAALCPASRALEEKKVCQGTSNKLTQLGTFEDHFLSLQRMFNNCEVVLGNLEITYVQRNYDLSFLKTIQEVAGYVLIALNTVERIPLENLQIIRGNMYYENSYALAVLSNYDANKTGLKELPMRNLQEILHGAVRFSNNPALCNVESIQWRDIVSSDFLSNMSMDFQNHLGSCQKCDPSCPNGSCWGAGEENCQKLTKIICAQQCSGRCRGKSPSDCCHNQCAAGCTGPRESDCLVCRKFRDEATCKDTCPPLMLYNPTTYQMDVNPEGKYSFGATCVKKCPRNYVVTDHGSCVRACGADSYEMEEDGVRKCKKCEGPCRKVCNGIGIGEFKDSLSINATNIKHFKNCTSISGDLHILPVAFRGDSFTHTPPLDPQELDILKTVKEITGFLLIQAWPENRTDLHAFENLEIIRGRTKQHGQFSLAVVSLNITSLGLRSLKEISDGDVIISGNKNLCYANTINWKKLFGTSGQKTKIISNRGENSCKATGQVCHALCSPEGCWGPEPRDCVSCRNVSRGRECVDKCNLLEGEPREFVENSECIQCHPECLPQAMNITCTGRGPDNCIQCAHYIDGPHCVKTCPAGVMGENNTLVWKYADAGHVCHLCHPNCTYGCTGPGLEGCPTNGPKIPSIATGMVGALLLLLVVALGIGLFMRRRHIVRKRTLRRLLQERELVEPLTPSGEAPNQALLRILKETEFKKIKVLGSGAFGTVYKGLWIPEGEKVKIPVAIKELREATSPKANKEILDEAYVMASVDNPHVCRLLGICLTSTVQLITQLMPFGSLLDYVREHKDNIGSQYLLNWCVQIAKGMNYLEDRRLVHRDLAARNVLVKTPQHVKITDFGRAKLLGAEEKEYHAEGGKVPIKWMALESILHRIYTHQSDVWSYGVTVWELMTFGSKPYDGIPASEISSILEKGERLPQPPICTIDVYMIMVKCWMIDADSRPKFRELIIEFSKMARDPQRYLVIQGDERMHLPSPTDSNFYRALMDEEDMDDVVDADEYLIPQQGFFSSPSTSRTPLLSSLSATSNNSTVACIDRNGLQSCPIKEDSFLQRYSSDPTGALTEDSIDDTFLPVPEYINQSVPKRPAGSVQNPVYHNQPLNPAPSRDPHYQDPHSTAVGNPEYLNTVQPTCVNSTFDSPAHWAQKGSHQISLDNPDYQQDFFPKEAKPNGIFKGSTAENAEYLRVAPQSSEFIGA
Chain of Ba/F3 EGFR Wild-type (P00533 whole entry, change not shown): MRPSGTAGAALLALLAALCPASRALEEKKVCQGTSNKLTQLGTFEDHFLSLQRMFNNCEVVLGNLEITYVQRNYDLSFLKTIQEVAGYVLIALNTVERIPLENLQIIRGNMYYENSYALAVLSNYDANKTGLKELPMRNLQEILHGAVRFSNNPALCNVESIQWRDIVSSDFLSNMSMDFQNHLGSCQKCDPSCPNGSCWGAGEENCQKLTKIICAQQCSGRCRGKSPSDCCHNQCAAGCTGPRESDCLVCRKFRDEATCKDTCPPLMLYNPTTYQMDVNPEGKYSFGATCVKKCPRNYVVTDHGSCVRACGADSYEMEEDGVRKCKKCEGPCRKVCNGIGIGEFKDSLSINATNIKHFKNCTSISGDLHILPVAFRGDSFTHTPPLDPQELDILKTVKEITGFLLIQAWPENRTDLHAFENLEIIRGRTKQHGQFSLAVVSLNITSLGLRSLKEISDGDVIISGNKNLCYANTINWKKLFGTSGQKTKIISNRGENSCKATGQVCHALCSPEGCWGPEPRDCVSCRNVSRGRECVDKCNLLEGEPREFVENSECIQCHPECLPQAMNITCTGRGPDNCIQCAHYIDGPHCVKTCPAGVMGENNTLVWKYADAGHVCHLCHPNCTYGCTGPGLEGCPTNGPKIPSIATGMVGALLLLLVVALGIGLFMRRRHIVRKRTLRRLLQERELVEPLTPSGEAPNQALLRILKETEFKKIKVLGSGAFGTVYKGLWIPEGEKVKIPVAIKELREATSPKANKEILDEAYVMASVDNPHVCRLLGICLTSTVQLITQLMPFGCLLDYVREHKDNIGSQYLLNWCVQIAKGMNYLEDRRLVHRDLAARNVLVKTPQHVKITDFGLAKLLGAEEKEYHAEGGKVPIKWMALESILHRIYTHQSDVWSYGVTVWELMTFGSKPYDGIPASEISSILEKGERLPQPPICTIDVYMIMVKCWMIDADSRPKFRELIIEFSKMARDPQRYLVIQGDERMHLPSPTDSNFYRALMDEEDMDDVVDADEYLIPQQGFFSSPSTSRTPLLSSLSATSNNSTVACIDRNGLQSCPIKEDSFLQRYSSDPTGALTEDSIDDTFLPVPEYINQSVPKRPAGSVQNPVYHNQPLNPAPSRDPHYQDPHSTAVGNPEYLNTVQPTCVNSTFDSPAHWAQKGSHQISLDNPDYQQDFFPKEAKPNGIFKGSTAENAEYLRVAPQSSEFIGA
Chain of Ba/F3 EGFR Del19/C797S mutants (P00533 with tags, fused parts or gaps DEL746-750/C797S, form open): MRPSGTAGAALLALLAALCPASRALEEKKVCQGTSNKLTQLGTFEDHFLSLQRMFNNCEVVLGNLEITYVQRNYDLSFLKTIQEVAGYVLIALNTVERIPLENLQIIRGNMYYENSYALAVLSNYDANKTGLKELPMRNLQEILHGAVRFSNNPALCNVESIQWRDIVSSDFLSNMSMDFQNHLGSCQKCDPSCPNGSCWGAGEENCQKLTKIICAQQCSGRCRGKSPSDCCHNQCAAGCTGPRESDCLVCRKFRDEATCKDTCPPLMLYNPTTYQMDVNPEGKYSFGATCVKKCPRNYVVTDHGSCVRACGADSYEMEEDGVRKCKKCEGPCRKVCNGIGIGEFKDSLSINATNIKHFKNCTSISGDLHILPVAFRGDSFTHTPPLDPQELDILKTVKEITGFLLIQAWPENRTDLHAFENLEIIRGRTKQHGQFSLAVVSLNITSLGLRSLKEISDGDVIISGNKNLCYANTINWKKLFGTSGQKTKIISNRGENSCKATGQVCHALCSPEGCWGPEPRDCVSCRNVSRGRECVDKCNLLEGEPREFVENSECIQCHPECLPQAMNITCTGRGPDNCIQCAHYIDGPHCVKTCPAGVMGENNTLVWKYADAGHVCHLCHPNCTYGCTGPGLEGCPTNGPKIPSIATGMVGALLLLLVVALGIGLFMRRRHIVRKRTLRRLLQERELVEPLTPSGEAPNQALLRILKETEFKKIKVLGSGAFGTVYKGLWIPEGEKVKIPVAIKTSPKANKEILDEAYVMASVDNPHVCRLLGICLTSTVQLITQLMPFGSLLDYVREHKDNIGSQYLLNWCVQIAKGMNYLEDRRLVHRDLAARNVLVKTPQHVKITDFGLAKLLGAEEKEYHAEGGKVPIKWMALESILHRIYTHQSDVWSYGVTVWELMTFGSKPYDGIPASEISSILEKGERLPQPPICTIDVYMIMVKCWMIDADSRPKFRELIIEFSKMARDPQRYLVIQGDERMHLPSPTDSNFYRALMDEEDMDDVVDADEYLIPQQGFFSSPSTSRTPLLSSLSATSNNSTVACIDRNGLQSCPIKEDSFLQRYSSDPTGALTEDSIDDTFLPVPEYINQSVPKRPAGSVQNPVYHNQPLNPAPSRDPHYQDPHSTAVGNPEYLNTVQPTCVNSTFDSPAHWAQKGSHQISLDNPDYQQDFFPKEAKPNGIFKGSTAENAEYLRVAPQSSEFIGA
Chain of Ba/F3 EGFR Del19/T790M mutants (P00533 with tags, fused parts or gaps DEL746-750/T790M, form open): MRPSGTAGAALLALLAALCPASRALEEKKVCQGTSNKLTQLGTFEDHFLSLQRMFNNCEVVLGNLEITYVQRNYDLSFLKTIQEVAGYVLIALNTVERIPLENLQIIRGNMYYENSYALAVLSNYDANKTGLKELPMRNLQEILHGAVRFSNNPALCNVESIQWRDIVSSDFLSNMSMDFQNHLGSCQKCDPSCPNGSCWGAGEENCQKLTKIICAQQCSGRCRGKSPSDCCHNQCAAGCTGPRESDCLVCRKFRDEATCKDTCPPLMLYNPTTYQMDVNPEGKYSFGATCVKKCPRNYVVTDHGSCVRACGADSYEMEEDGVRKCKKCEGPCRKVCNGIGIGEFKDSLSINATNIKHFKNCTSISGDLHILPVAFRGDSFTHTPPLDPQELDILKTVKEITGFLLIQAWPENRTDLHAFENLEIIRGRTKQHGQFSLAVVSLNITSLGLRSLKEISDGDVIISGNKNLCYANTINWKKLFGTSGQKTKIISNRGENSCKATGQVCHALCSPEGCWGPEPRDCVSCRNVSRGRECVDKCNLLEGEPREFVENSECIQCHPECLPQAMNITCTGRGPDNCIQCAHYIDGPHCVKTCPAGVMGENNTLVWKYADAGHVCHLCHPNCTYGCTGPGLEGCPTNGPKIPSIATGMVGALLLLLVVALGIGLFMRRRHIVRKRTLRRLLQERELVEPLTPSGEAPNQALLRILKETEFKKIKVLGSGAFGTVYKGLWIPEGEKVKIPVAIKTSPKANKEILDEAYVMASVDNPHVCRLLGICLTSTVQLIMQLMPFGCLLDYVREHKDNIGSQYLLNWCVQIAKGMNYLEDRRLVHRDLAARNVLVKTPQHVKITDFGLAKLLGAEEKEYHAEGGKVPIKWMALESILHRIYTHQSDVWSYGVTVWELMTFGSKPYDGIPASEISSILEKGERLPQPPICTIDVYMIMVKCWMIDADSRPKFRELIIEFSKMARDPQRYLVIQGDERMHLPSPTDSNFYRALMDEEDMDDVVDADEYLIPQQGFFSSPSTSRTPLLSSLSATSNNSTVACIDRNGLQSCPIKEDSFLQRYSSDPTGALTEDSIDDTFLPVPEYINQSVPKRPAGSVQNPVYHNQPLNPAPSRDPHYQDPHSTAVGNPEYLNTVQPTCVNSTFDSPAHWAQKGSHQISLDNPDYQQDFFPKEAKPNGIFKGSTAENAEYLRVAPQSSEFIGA

Row | Compound | GI50 [1] [nM] | GI50 (Ba/F3 EGFR Wild-type) [nM] | GI50 [2] [nM] | GI50 [3] [nM] | GI50 [4] [nM] | GI50 [5] [nM]
1 | COc1ccc(Nc2nc(Nc3cc(C)c(N4CCC(N(C)C)CC4)cc3OC)ncc2Cl)c(NS(C)(=O)=O)c1 [Example C4, N-(2-((5-chloro-2-((4-(4-(dimethylamino)piperidin-1-yl)-2-methoxy-5-methylphenyl)amino)pyrimidin-4-yl)amino)-5-methoxyphenyl)methanesulfonamide] | 132 | 263 | 30 | 38 | 91 | 31
2 | COc1cc(N2CCC(N(C)C)CC2)c(C)cc1Nc1ncc(Br)c(Nc2cccc(OC)c2N(C)S(C)(=O)=O)n1 [Example C5, N-(2-((5-bromo-2-((4-(4-(dimethylamino)piperidin-1-yl)-2-methoxy-5-methylphenyl)amino)pyrimidin-4-yl)amino)-6-methoxyphenyl)-N-methylmethanesulfonamide] | 34 | 545 | 17 | 94 | 91 | 19
3 | COc1cc(N2CCNCC2)ccc1Nc1ncc(Cl)c(Nc2cccc(OC)c2NS(C)(=O)=O)n1 [Example C6, N-(2-((5-chloro-2-((2-methoxy-4-(piperazin-1-yl)phenyl)amino)pyrimidin-4-yl)amino)-6-methoxyphenyl)methanesulfonamide] | 222 | 626 | 268 | 596 | 305 | 106
4 | CCc1cc(Nc2ncc(Br)c(Nc3cccc(OC)c3N(C)S(C)(=O)=O)n2)c(OC)cc1N1CCC(N2CCN(C)CC2)CC1 [Example C7, N-(2-((5-bromo-2-((5-ethyl-2-methoxy-4-(4-(4-methylpiperazin-1-yl)piperidin-1-yl)phenyl)amino)pyrimidin-4-yl)amino)-6-methoxyphenyl)-N-methylmethane sulfonamide] | 10 | 534 | 6 | 24 | 52 | 10
5 | COc1cc(N2CCC(N3CCN(C)CC3)CC2)ccc1Nc1ncc(Cl)c(Nc2ccc3scnc3c2NS(C)(=O)=O)n1 [Example C8, N-(5-((5-chloro-2-((2-methoxy-4-(4-(4-methylpiperazin-1-yl)piperidin-1-yl)phenyl)amino)pyrimidin-4-yl)amino)benzo[d]thiazol-4-yl)methanesulfonamide] | 170 | 804 | 94 | 308 | 316 | 210
6 | COc1cc(N2CCC(N3CCN(C)CC3)CC2)ccc1Nc1ncc(Cl)c(Nc2ccc3c(c2NS(C)(=O)=O)OCCO3)n1 [Example C9, N-(6-((5-chloro-2-((2-methoxy-4-(4-(4-methylpiperazin-1-yl)piperidin-1-yl)phenyl)amino)pyrimidin-4-yl)amino)-2,3-dihydrobenzo[b][1,4]dioxin-5-yl)methanesulfonamide] | 260 | 755 | 152 | 356 | 345 | 281
7 | COc1cc(N2CCC(N3CCCC3)CC2)c(C)cc1Nc1ncc(Cl)c(Nc2cccc(OC)c2NS(C)(=O)=O)n1 [Example C10, N-(2-((5-chloro-2-((2-methoxy-5-methyl-4-(4-(pyrrolidin-1-yl)piperidin-1-yl)phenyl)amino)pyrimidin-4-yl)amino)-6-methoxyphenyl)methanesulfonamide] | 9 | 404 | 6 | 45 | 61 | 9
8 | COc1ccc(Nc2nc(Nc3cc(C)c(N4CCC(N5CCCC5)CC4)cc3OC)ncc2Cl)c(NS(C)(=O)=O)c1 [Example C11, N-(2-((5-chloro-2-((2-methoxy-5-methyl-4-(4-(pyrrolidin-1-yl)piperidin-1-yl)phenyl)amino)pyrimidin-4-yl)amino)-5-methoxyphenyl)methanesulfonamide] | 9 | 458 | 5 | 39 | 45 | 6
9 | CCCc1cc(Nc2ncc(Cl)c(Nc3ccc(OC)cc3NS(C)(=O)=O)n2)c(OC)cc1N1CCC(N(C)C)CC1 [Example C12, N-(2-((5-chloro-2-((4-(4-(dimethylamino)piperidin-1-yl)-2-methoxy-5-propylphenyl)amino)pyrimidin-4-yl)amino)-5-methoxyphenyl)methanesulfonamide] | 9 | 731 | 8 | 29 | 28 | 6
10 | CCCc1cc(Nc2ncc(Cl)c(Nc3ccc4c(c3NS(C)(=O)=O)OCCO4)n2)c(OC)cc1N1CCC(N(C)C)CC1 [Example C13, N-(6-((5-chloro-2-((4-(4-(dimethylamino)piperidin-1-yl)-2-methoxy-5-propylphenyl)amino)pyrimidin-4-yl)amino)-2,3-dihydrobenzo[b][1,4]dioxin-5-yl)methanesulfonamide] | 27 | 769 | 20 | 52 | 61 | 23
11 | CCc1cc(Nc2ncc(Cl)c(Nc3ccc(OC)cc3NS(C)(=O)=O)n2)c(OC)cc1N1CCC(N2CCOCC2)CC1 [Example C14, N-(2-((5-chloro-2-((5-ethyl-2-methoxy-4-(4-morpholinopiperidin-1-yl)phenyl)amino)pyrimidin-4-yl)amino)-5-methoxyphenyl) methanesulfonamide] | 4 | 415 | 2 | 21 | 22 | 4
12 | CCc1cc(Nc2ncc(Cl)c(Nc3ccc4c(c3NS(C)(=O)=O)OCCO4)n2)c(OC)cc1N1CCC(N2CCOCC2)CC1 [Example C15, N-(6-((5-chloro-2-((5-ethyl-2-methoxy-4-(4-morpholinopiperidin-1-yl)phenyl)amino)pyrimidin-4-yl)amino)-2,3-dihydrobenzo[b][1,4]dioxin-5-yl)methanesulfonamide] | 14 | 638 | 8 | 30 | 44 | 13
13 | CCS(=O)(=O)Nc1c(Nc2nc(Nc3cc(C)c(N4CCC(N5CCN(C)CC5)CC4)cc3OC)ncc2Cl)cccc1OC [Example C16, N-(2-((5-chloro-2-((2-methoxy-5-methyl-4-(4-(4-methylpiperazin-1-yl)piperidin-1-yl)phenyl)amino)pyrimidin-4-yl)amino)-6-methoxyphenyl)ethanesulfonamide] | 10 | 486 | 6 | 34 | 51 | 9
14 | CCS(=O)(=O)Nc1cc(OC)ccc1Nc1nc(Nc2cc(C)c(N3CCC(N4CCN(C)CC4)CC3)cc2OC)ncc1Cl [Example C17, N-(2-((5-chloro-2-((2-methoxy-5-methyl-4-(4-(4-methylpiperazin-1-yl)piperidin-1-yl)phenyl)amino)pyrimidin-4-yl)amino)-5-methoxyphenyl)ethanesulfonamide] | 14 | 655 | 7 | 40 | 52 | 9
